{
  "source": "patent US20020192274A1",
  "about": "“pH sensitive liposomal drug delivery” (priority 2001, published 2002)",
  "key": {"TNF-α mRNA": {"tested_on": "TNF-α mRNA", "assay": "Tissue levels of TNF-α mRNA by Northern hybridization", "type": "in vivo, rat", "settings": "pH-sensitive liposomes, two daily doses 1.5 mg/Kg, LPS 48 h post ASO, normalized to GAPDH, vs empty liposomes", "description": "FIG. 8. Effect of ASO TJU-2755 (SEQ. ID. NO: 1) in vivo on TNF-α mRNA. Rats are injected with two daily doses (1.5 mg/Kg body wt.) of ASO and injected with LPS (50 μg/Kg body wt.) 48 h post ASO administration as described in legend to FIG. 5. Liver (n=5) and spleen (n=4) are processed for the extraction of mRNA fractions. Steady-state levels of TNF-α mRNA are determined by Northern hybridization and normalized to the levels of GAPDH mRNA. Bars indicate mRNA (Means ±S.E) of (n) values from ASO-treated samples, expressed as percent of control values derived from rats treated with “empty” liposomes. *p<0.05, **p<0.01 (Vs control).\nLiver and spleen samples (≈100 mg) are homogenized in 3 volumes of cold TRI Reagent (Molecular Research Center, Inc.). […] The intactness of total RNA is measured by agarose (1%) gel electrophoresis by visualizing the intactness of ribosomal RNA (28S, 18S). […] The purity of the isolated mRNA is monitored by analyzing the absorption ratios of 260 to 280 (nm), which always ranged from 1.8-2.0.\nSamples of mRNA are run on 1% agarose gel electrophoresis, vacuum transferred (BIORAD Model 785 Vacuum Blotter) onto a nitrocellulose membrane (Amersham), and crosslinked (Statagene UV Stratalinker 2400). […] The autoradiograms are quantitated using an ultrascan laser densitometer. […]"}, "TNF-α [1]": {"tested_on": "TNF-α", "settings": "primary Kupffer cells ex vivo; cited from earlier work"}, "TNF-α [2]": {"tested_on": "TNF-α", "assay": "Plasma TNF-α after LPS challenge following in vivo ASO administration (ELISA)", "design": "species or system rat", "description": "FIG. 6. […] Rats are injected with either one (n=3), two (n=8) or three (n=1) daily doses of TJU-2755 (SEQ. ID. NO: 1) and administered LPS (50 μg/Kg body wt.) at 48 h after the last injection of the antisense formulation as described in legend to FIG. 5. […] Plasma TNF-α is determined by ELISA. Bars indicate values from ASO-treated animals expressed as percent of corresponding controls (animals dosed with “empty liposomes”) and are the means ±S.E of (n) determinations. ***p<0.001 between rats injected two daily doses of ASO and controls. The absolute (Mean) values of TNF-α for control and TJU-2755 (SEQ. ID. NO: 1)-treated plasma samples (for two daily doses) were 34,375 and 9,731 (pg/ml plasma) respectively.\n(§1) ELISA is conducted by using Cytoscreen KRC3012 kits (Biosource, Camarillo, Calif.) according to the manufacturer's specifications. Supernatants containing high TNF-α levels are diluted prior to the assay to assure assay results within the standard curve.\n(§2) Rats are injected intravenously with two daily doses (1.5 mg/Kg body wt.) of ASO TJU-2755 (SEQ. ID. NO: 1) encapsulated in pH-stable liposomes and challenged with LPS (50 μg/Kg body wt.) at 48 h post injection. Animals are sacrificed 90 minutes post-LPS. The amount of TNF-α in plasma, as well as that secreted by liver slices, is determined exactly as described for pH-sensitive liposomes (supra) and legends to FIG. 4 and FIG. 5. Body-weight matched rats injected with two doses of “empty” liposomes and challenged similarly with LPS constituted the control group. All TNF-α values are normalized to the corresponding control groups (=100). Values are expressed as mean ±S.E of (n) determinations."}, "TNF-α [3]": {"tested_on": "TNF-α", "assay": "LPS-induced TNF-α secretion by liver slices after in vivo ASO administration (ELISA)", "design": "species or system rat", "settings": "for inhibition of LPS-induced TNF-α production in liver slices: vs empty liposomes", "description": "FIG. 4. In vivo efficacy of ASO TJU-2755 (SEQ. ID. NO: 1) against TNF-α in the liver: Effect of duration post-injection. Rats are intravenously injected with pH-sensitive liposomes encapsulated with TJU-2755 (1.5-1.75 mg/Kg body wt). At different times (24, 48 and 72 h) after ASO administration, LPS (50 μg/Kg body weight for 90 minutes) is administered intravenously (i.v.) and the animals are sacrificed 90 min after this challenge. Liver is excised, slices prepared and incubated for 2 h (infra). The amount of TNF-α released into the medium is measured by ELISA. The TNF-α values (bars) from the ASO-treated animals are normalized to control values (control=100) obtained from body weight-matched rats treated similarly except that they are injected with “empty” liposomes. Values indicated are means ±S.E. of (n) determinations. Number of animals, 24 h, n=3; 48 h, n=4, 72 h, n=3. * p<0.05 (vs Control).\nFIG. 5. In vivo efficacy of ASO TJU-2755 (SEQ. ID. NO: 1) against TNF-α in the liver: Effect of multiple injections. Rats are injected with either one or two daily doses of ASO (1.5-1.75 mg/Kg body wt) encapsulated liposomes. […] The amount of TNF-α produced by liver slices is determined as described in legend to FIG. 4 (supra). Bars indicate the amount of TNF-α produced by ASO-treated animals, expressed as percent of controls injected with “empty” liposomes and are the means ±S.E. of n=4 for single dose and n=7 for two doses. *p<0.05, **p<0.01 vs control). The absolute values (Mean) of TNF-α for control and TNF-2755-treated livers (for two daily doses) were 17,748 and 7,500 pg/g liver, respectively.\nFollowing the in vivo administration of LPS, the production of TNF-α in the liver is assessed by measuring the amount of TNF-α secreted by liver slices. Liver slices are prepared and incubated in culture medium according to the procedure described by Videla and Israel (Videla, L., Israel, Y., Biochem J. 118: 275-281, 1970) with modifications, which include the addition of insulin and fetal calf serum to the culture medium. Briefly, liver slices of uniform thickness (10×4×0.4 mm) are prepared from the mid lobe and initially rinsed in ice-cold William's E medium. The slices (2 slices per dish) are transferred to culture dishes (35 mm) containing 2 ml of fresh medium (90% William's E, 10% fetal calf serum and 2 units of insulin/100 ml) and incubated at 37° C. for 2 h. The amount of TNF-α released into the medium is measured (infra).\nas §1, §2"}, "[4]": {"settings": "pH-stable liposomes, two daily doses 1.5 mg/Kg i.v., LPS at 48 h, mean ± S.E"}},
  "data": [
    {"substance": "TJU-2755: phosphorothioate 21-mer antisense oligonucleotide 5′-TGATCCACTCCCCCCTCCACT-3′, complementary to the 3′-untranslated region of rat TNF-α mRNA (all phosphorothioate, sugars by position and methylation of C not given here)", "values": [
      {"measurement": "reduction in TNF-α mRNA levels, spleen", "setting": "TNF-α mRNA", "result": 36.5, "unit": "%"},
      {"measurement": "reduction in steady-state levels of TNF-α mRNA, liver", "setting": "TNF-α mRNA", "result": 35, "unit": "%"},
      {"measurement": "inhibition of LPS-stimulated TNF-α production", "setting": "TNF-α [1]", "result": "> 90", "unit": "%"},
      {"measurement": "reduction in plasma TNF-α levels", "setting": "TNF-α [2]; pH-sensitive liposomes, 2 doses, LPS 48 h after last injection, vs empty liposomes", "result": 68, "unit": "%"},
      {"measurement": "plasma TNF-α, absolute mean", "setting": "TNF-α [2]; pH-sensitive liposomes, two daily doses, control 34,375", "result": "9,731 pg/ml plasma"},
      {"measurement": "TNF-α (%) plasma, normalized to control (=100)", "setting": "TNF-α [2]; [4]", "result": "93 ± 28", "unit": "%"},
      {"measurement": "inhibitory effect on LPS-induced TNF-α production", "setting": "TNF-α [3]; ASO delivered with pH-stable liposomes (liver and plasma, Table 1)", "result": "no inhibitory effect"},
      {"measurement": "inhibition of LPS-induced TNF-α production in liver slices", "setting": "TNF-α [3]; pH-sensitive liposomes, single i.v. dose, LPS 48 h post injection", "result": "~30", "unit": "%"},
      {"measurement": "inhibition of LPS-induced TNF-α production in liver slices", "setting": "TNF-α [3]; pH-sensitive liposomes, two daily doses, LPS 48 h after last injection", "result": 50, "unit": "%"},
      {"measurement": "TNF-α produced by liver slices, absolute mean", "setting": "TNF-α [3]; pH-sensitive liposomes, two daily doses, control 17,748", "result": "7,500 pg/g liver"},
      {"measurement": "TNF-α (%) liver, normalized to control (=100)", "setting": "TNF-α [3]; [4]", "result": "103 ± 23", "unit": "%"}
    ]}
  ]
}
